According to patent publication US12534456B2, “Heterocyclyl pyridines as novel fungicides” (Bayer Aktiengesellschaft, priority 2020, dated 2026):
Read-outs that look alike come from different tables or passages of the source.

Columns and labels:
[1] = system: Colletotrichum lindemuthianum; assay: Colletotrichum lindemuthianum in vitro cell test; assay type: cell-based; conditions: 144 h, 20 ppm of active ingredient, liquid culture with spores, 6 days incubation, spectrometric measurement of mycelium growth, read-out: efficacy (inhibition of fungal growth)
Protocol: (§1) B-7. Colletotrichum lindemuthianum In Vitro Cell Test • Solvent: DMSO • Culture medium: 14.6 g anhydrous D-glucose (VWR), 7.1 g Mycological Peptone (Oxoid), 1.4 g granulated Yeast Extract (Merck), QSP 1 liter • Inoculum: spores suspension • Fungicides were solubilized in DMSO and the solution used to prepare the required range of concentrations. […] A spore suspension of C. lindemuthianum was prepared and diluted to the desired spore density. Fungicides were evaluated for their ability to inhibit spores germination and mycelium growth in liquid culture assay. The compounds were added in the desired concentration to the culture medium with spores. After 6 days incubation, fungi-toxicity of compounds was determined by spectrometric measurement of mycelium growth. Inhibition of fungal growth was determined by comparing the absorbance values in wells containing the fungicides with the absorbance in control wells without fungicides.

Alternaria alternata = Alternaria alternata in vitro cell test; assay type: cell-based; conditions: 120 h, 20 ppm of active ingredient, liquid culture with spores, 5 days incubation, spectrometric measurement of mycelium growth, read-out: efficacy (inhibition of fungal growth)
Protocol: as §1, with “B-5. Alternaria alternata In” for “B-7. Colletotrichum lindemuthianum In”, “of A. alternata” for “of C. lindemuthianum”, “inhibit spore” for “inhibit spores”, “After 5” for “After 6”

physchem = assay type: physicochemical; conditions: Table 1, compounds of formula (I); method [a]: LC-UV, acidic range, 0.1% formic acid in water and acetonitrile
Protocol: Measurement of Log P values as provided herein was performed according to EEC directive 79/831 Annex V.A8 by HPLC (High Performance Liquid Chromatography) on reversed phase columns with the following methods: • ^[a]
If more than one Log P value is available within the same method, all the values are given and separated by “+”.
Lambda-max-values were determined using UV-spectra from 200 nm to 400 nm and the peak values of the chromatographic signals

Pyricularia oryzae = assay: microbe, parasite or virus in culture; assay type: cell-based; conditions: 120 h, read-out: efficacy (inhibition of fungal growth)
Fusarium culmorum = Fusarium culmorum in vitro cell test; assay type: cell-based; conditions: 96 h, read-out: efficacy (inhibition of fungal growth)
Protocol: B-9. Fusarium culmorum In Vitro Cell Test
• Solvent: DMSO • Culture medium: 14.6 g anhydrous D-glucose (VWR), 7.1 g Mycological Peptone (Oxoid), 1.4 g granulated Yeast Extract (Merck), QSP 1 liter • Inoculum: spore suspension
Fungicides were solubilized in DMSO and the solution used to prepare the required range of concentrations. The final concentration of DMSO used in the assay was ≤1%.
A spore suspension of F. culmorum was prepared and diluted to the desired spore density.
Fungicides were evaluated for their ability to inhibit spore germination and mycelium growth in liquid culture assay. The compounds were added in the desired concentration to the culture medium with spores. After 4 days incubation, fungi-toxicity of compounds was determined by spectrometric measurement of mycelium growth. Inhibition of fungal growth was determined by comparing the absorbance values in wells containing the fungicides with the absorbance in control wells without fungicides.

Septoria tritici = Septoria tritici in vitro cell test; assay type: cell-based; conditions: Zymoseptoria tritici, 168 h; 20 ppm of active ingredient; liquid culture with spores, 7 days incubation, spectrometric measurement of mycelium growth; read-out: efficacy (inhibition of fungal growth)
Protocol: B-8. Septoria tritici In Vitro Cell Test • Solvent: DMSO • Culture medium: 1 g KH2PO4 (VWR), 1 g K2HPO4 (VWR), 0.5 g Urea (VWR), 3 g KNO3 (Prolabo), 10 g saccharose (VWR), 0.5 g MgSO4, 7H2O (Sigma), 0.07 g CaCl2, 2H2O (Prolabo), 0.2 mg MnSO4, H2O (Sigma), 0.6 mg CuSO4, 5H2O (Sigma), 7.9 mg ZnSO4, 7H2O (Sigma), 0.1 mg H3BO3 (Merck), 0.14 mg NaMoO4, 2H2O (Sigma), 2 mg thiamine (Sigma), 0.1 mg biotine (VWR), 4 mg FeSO4, 7H2O (Sigma), QSP 1 liter • Inoculum: spore suspension Fungicides were solubilized in DMSO and the solution used to prepare the required range of concentrations. […] A spore suspension of S. tritici was prepared and diluted to the desired spore density. Fungicides were evaluated for their ability to inhibit spore germination and mycelium growth in liquid culture assay. The compounds were added in the desired concentration to the culture medium with spores. […] Inhibition of fungal growth was determined by comparing the absorbance values in wells containing the fungicides with the absorbance in control wells without fungicides.

[2] = 20 ppm of active ingredient, liquid culture with spores, 4 days incubation, spectrometric measurement of mycelium growth

Q: What does the source list for `Cc1cc(C2=NOCC(Cc3ccc(Cl)cc3Cl)N2)c(Oc2cccc(C3CC3)c2F)cn1` (racemic) [Compound I-029, (5RS)-3-[5-(3-cyclopropyl-2-fluorophenoxy)-2-methylpyridin-4-yl]-5-(2,4-dichlorobenzyl)-5,6-dihydro-4H-1,2,4-oxadiazine]?
A: inhibition at 20 ppm [1]: 90 to 100%; inhibition at 20 ppm (Alternaria alternata): 90 to 100%; chromatographic logP (physchem): 4.23; inhibition at 20 ppm (Pyricularia oryzae): 90 to 100%; inhibition at 20 ppm (Fusarium culmorum): 90 to 100%; inhibition at 20 ppm (Septoria tritici): 90 to 100%

Q: For `COc1ccc(C2NC(c3cc(Cl)ncc3Oc3cccc(C(F)(F)F)c3)=NOC2(F)F)cc1` (racemic) [Compound I-047, (5RS)-3-{2-chloro-5-[3-(trifluoromethyl)phenoxy]pyridin-4-yl}-6,6-difluoro-5-(4-methoxyphenyl)-5,6-dihydro-4H-1,2,4-oxadiazine], which inhibition at 20 ppm [1] is on record?
A: 90 to 100%

Q: And the inhibition at 20 ppm (Alternaria alternata)?
A: 90 to 100%

Q: And the chromatographic logP (physchem)?
A: 4.14

Q: And the inhibition at 20 ppm (Pyricularia oryzae)?
A: 90 to 100%

Q: And the inhibition at 20 ppm (Fusarium culmorum; [2])?
A: 80 to 89%

Q: What about the inhibition at 20 ppm (Septoria tritici) of the same compound?
A: 90 to 100%

Q: With `Cc1ccc(CC2CON=C(c3cc(Cl)ncc3Oc3cccc(C(F)(F)F)c3)N2)c(C)c1` (racemic) [Compound I-001, (5RS)-3-{2-chloro-5-[3-(trifluoromethyl)phenoxy]pyridin-4-yl}-5-(2,4-dimethylbenzyl)-5,6-dihydro-4H-1,2,4-oxadiazine] as the compound, how does the inhibition at 20 ppm [1] read?
A: 90 to 100%

Q: And the inhibition at 20 ppm (Alternaria alternata)?
A: 90 to 100%

Q: And the chromatographic logP (physchem)?
A: 4.56

Q: And the inhibition at 20 ppm (Pyricularia oryzae)?
A: 90 to 100%

Q: What about the inhibition at 20 ppm (Fusarium culmorum) of the same compound?
A: 90 to 100%

Q: With `Cc1cc(C2CC2)ccc1CC1CON=C(c2cc(Cl)ncc2Oc2cccc(C(F)(F)F)c2)N1` (racemic) [Compound I-107, rac-(5R)-3-[2-chloro-5-[3-(trifluoromethyl)phenoxy]-4-pyridyl]-5-[(4-cyclopropyl-2-methyl-phenyl)methyl]-5,6-dihydro-4H-1,2,4-oxadiazine] as the compound, how does the inhibition at 20 ppm [1] read?
A: 90 to 100%

Q: What about the inhibition at 20 ppm (Alternaria alternata) of the same compound?
A: 80 to 89%

Q: And the chromatographic logP (physchem)?
A: 4.88

Q: And the inhibition at 20 ppm (Pyricularia oryzae)?
A: 90 to 100%

Q: What about the inhibition at 20 ppm (Septoria tritici) of the same compound?
A: 90 to 100%

Q: For `Cc1ccc(C2CON=C(c3cc(Cl)ncc3Oc3cccc(C(F)(F)F)c3)N2)s1` (racemic) [Compound I-097, rac-(5S)-3-[2-chloro-5-[3-(trifluoromethyl)phenoxy]-4-pyridyl]-5-(5-methyl-2-thienyl)-5,6-dihydro-4H-1,2,4-oxadiazine], which inhibition at 20 ppm [1] is on record?
A: 90 to 100%

Q: What about the inhibition at 20 ppm (Alternaria alternata) of the same compound?
A: 90 to 100%

Q: And the chromatographic logP (physchem)?
A: 3.87

Q: And the inhibition at 20 ppm (Pyricularia oryzae)?
A: 70 to 79%

Q: And the inhibition at 20 ppm (Fusarium culmorum)?
A: 90 to 100%

Q: What about the inhibition at 20 ppm (Septoria tritici) of the same compound?
A: 90 to 100%

Q: What does the source list for `Cc1ccc(C[C@@H]2CON=C(c3cc([C@@H]4CCOC4)ncc3Oc3cccc(C(F)(F)F)c3)N2)cc1` (racemic) [Compound I-058, (5RS)-5-(4-methylbenzyl)-3-{2-[(3SR)-tetrahydrofuran-3-yl]-5-[3-(trifluoromethyl)phenoxy]pyridin-4-yl}-5,6-dihydro-4H-1,2,4-oxadiazine]?
A: inhibition at 20 ppm [1]: 90 to 100%; inhibition at 20 ppm (Alternaria alternata): 90 to 100%; chromatographic logP (physchem): 3.78; inhibition at 20 ppm (Pyricularia oryzae): 90 to 100%; inhibition at 20 ppm (Fusarium culmorum): 90 to 100%; inhibition at 20 ppm (Septoria tritici): 90 to 100%

Q: With `FC(F)c1cccc(Oc2cnc(Cl)cc2C2=NOC[C@@H](Cc3ccc([C@H]4CCOC4)cc3Cl)N2)c1` (racemic) [Compound I-041, (5RS)-3-{2-chloro-5-[3-(difluoromethyl)phenoxy]pyridin-4-yl}-5-{2-chloro-4-[(3RS)-tetrahydrofuran-3-yl]benzyl}-5,6-dihydro-4H-1,2,4-oxadiazine] as the compound, how does the inhibition at 20 ppm [1] read?
A: 90 to 100%

Q: And the inhibition at 20 ppm (Alternaria alternata)?
A: 90 to 100%

Q: And the chromatographic logP (physchem)?
A: 3.81

Q: And the inhibition at 20 ppm (Pyricularia oryzae)?
A: 80 to 89%

Q: What about the inhibition at 20 ppm (Septoria tritici) of the same compound?
A: 70 to 79%

Q: For `Cc1ccc(CC2CON=C(c3ccncc3Oc3cccc(C(F)(F)F)c3)N2)cc1` (racemic) [Compound I-039, (5RS)-5-(4-methylbenzyl)-3-{3-[3-(trifluoromethyl)phenoxy]pyridin-4-yl}-5,6-dihydro-4H-1,2,4-oxadiazine], which inhibition at 20 ppm [1] is on record?
A: 90 to 100%

Q: What about the inhibition at 20 ppm (Alternaria alternata) of the same compound?
A: 90 to 100%

Q: And the chromatographic logP (physchem)?
A: 3.47

Q: What about the inhibition at 20 ppm (Fusarium culmorum) of the same compound?
A: 90 to 100%

Q: And the inhibition at 20 ppm (Septoria tritici)?
A: 80 to 89%

Q: With `Cc1ccc(CC2CON=C(c3cc(C(F)(F)F)ncc3Oc3cccc(C(F)(F)F)c3)N2)c(C)c1` (racemic) [Compound I-034, (5RS)-5-(2,4-dimethylbenzyl)-3-{2-(trifluoromethyl)-5-[3-(trifluoromethyl)phenoxy]pyridin-4-yl}-5,6-dihydro-4H-1,2,4-oxadiazine] as the compound, how does the inhibition at 20 ppm [1] read?
A: 90 to 100%

Q: What about the inhibition at 20 ppm (Alternaria alternata) of the same compound?
A: 90 to 100%

Q: What about the chromatographic logP (physchem) of the same compound?
A: 4.89

Q: What about the inhibition at 20 ppm (Pyricularia oryzae) of the same compound?
A: 90 to 100%

Q: And the inhibition at 20 ppm (Fusarium culmorum; [2])?
A: 70 to 79%

Q: And the inhibition at 20 ppm (Septoria tritici)?
A: 90 to 100%
